One assay has as its target T1, human CYP11B2 (Homo sapiens, UniProt P19099).
T1 construct: expressed in transfected cells
T1 sequence (P19099 25-503): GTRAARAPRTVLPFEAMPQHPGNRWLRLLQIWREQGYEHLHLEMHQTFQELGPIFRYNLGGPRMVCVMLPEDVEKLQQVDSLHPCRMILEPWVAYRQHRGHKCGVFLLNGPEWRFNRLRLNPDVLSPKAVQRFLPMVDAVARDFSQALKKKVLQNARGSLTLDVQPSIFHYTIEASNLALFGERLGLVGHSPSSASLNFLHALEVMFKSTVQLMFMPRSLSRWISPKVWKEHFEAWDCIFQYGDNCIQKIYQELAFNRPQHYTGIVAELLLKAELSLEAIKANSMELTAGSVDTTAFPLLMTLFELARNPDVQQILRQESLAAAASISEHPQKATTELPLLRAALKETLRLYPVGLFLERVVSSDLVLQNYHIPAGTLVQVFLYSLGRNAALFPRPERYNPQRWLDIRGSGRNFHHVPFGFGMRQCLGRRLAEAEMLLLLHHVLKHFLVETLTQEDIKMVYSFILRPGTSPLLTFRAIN
Put plainly: G-402 cellular enzyme assay, human CYP11B2 (aldosterone release, HTRF). Type of assay: cell-based. The conditions noted are these: G-402 cells, 1 μM Deoxycorticosterone. Put shortly: (§1)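 Steroid output from supernatants, quantified by HTRF as cortisol for CYP11B1 or aldosterone for CYP11B2, gave EC50 values by least-squares 4-parameter MMF fitting against inhibitor concentration. Stably transfected G-402 cells carrying the human enzyme received 1 μM deoxycortisol or 1 μM deoxycorticosterone respectively, 16 h, DMEM/F12 with 2.5% charcoal-stripped FCS.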
For orientation: Time-resolved FRET reads energy transfer from a long-lived donor to a nearby acceptor.

A further assay has as its target T2, human CYP11B1 (Homo sapiens, UniProt P15538).
T2 construct: expressed in transfected cells
T2 sequence (P15538 25-503): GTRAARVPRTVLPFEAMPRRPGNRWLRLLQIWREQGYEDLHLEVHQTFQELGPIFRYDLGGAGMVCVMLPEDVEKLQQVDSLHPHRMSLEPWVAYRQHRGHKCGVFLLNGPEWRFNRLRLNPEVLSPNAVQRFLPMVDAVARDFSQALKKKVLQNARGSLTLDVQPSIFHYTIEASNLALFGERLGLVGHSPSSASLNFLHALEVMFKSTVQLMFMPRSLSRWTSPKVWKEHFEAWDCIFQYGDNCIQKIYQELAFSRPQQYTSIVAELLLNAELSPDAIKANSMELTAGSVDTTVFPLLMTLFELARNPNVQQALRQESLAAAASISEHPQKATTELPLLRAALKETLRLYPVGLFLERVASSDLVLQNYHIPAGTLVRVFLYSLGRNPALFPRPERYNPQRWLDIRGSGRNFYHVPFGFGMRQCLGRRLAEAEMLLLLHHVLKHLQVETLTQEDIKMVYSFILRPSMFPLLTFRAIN
Put plainly: G-402 cellular enzyme assay, human CYP11B1 (cortisol release, HTRF). It counts as cell-based. Particulars: G-402 cells, 1 μM Deoxycortisol. Put shortly:
as §1

For the molecule `O=C1c2ccc(Cl)cc2C2(CC2)N1c1cccnc1` [Example 296, 6′-Chloro-2′-(pyridin-3-yl)spiro[cyclopropane-1,1′-isoindol]-3′(2′H)-one], the results for the EC50 at human CYP11B2 and on human CYP11B1 were 132 nM and 4500 nM, respectively.
Consider `O=C1c2ccc(Cl)cc2CCN1c1cncc(Cn2ccnc2Cl)c1` [Example 176, 6-Chloro-2-[5-(2-chloro-imidazol-1-ylmethyl)-pyridin-3-yl]-3,4-dihydro-2H-isoquinolin-1-one], for which the results for the EC50 on human CYP11B2 and on human CYP11B1 were 9.8 nM and 57.8 nM, respectively.
The like results for `CC(c1cncc(N2CCc3cc(Cl)ccc3C2=O)c1)n1ccnc1` (stereo not drawn) [Example 270, 6-Chloro-2-[5-(1-imidazol-1-yl-ethyl)-pyridin-3-yl]-3,4-dihydro-2H-isoquinolin-1-one] were, in that order, 6.3 nM and 27.9 nM.
On to `CC1(C)c2cc(C#N)ccc2C(=O)N1c1cncc(CNS(C)(=O)=O)c1` [Example 402, N-[5-(6-Cyano-1,1-dimethyl-3-oxo-1,3-dihydro-isoindol-2-yl)-pyridin-3-ylmethyl]-methane-sulfonamide], for which the values for the concentration giving a half-maximal response (EC50) at human CYP11B2 and at human CYP11B1 were 34.2 nM and 2210 nM, respectively.
Consider `CC(c1cncc(N2CCc3cc(Cl)ccc3C2=O)c1)n1nccn1` (stereo not drawn) [Example 269, 6-Chloro-2-[5-(1-[1,2,3]triazol-2-yl-ethyl)-pyridin-3-yl]-3,4-dihydro-2H-isoquinolin-1-one], for which the results for the half-maximal effective concentration (EC50) at human CYP11B2 and on human CYP11B1 were 46.2 nM and 425 nM, respectively.
As for `O=C1c2ccc(Cl)cc2C2(CC2)N1c1cnccc1Cl` [Example 305, 6′-Chloro-2′-(4-chloropyridin-3-yl)spiro[cyclopropane-1,1′-isoindol]-3′(2′H)-one], the half-maximal effective concentration (EC50) on human CYP11B2 amounted to 5.4 nM; at human CYP11B1 it was 860 nM.
Regarding `O=C1c2ccc(Cl)cc2CCN1c1cncc(CN2CCC3(COC3)C2)c1` [Example 170, 6-Chloro-2-[5-(2-oxa-6-aza-spiro[3.4]oct-6-ylmethyl)-pyridin-3-yl]-3,4-dihydro-2H-isoquinolin-1-one], the half-maximal effective concentration (EC50) on human CYP11B2 was 3.5 nM; at human CYP11B1 it was 14.6 nM.
Regarding `CC(O)(c1cc(F)cc(F)c1)c1cncc(N2CCc3cc(Cl)ccc3C2=O)c1` (stereo not drawn) [Example 37, 6-Chloro-2-{5-[1-(3,5-difluoro-phenyl)-1-hydroxy-ethyl]-pyridin-3-yl}-3,4-dihydro-2H-isoquinolin-1-one], the half-maximal effective concentration (EC50) on human CYP11B2 worked out at 9.2 nM; at human CYP11B1, 149 nM.
Turning to `COC(C)c1ccncc1N1CCc2cc(Cl)ccc2C1=O` (stereo not drawn) [Example 64, 6-Chloro-2-[4-(1-methoxy-ethyl)-pyridin-3-yl]-3,4-dihydro-2H-isoquinolin-1-one], the EC50 at human CYP11B2 worked out at 127 nM; on human CYP11B1 it was 6310 nM.
In the same order, the values of `CC1(C)c2cc(Cl)ccc2C(=O)N1c1cncc(N2CCN(S(C)(=O)=O)CC2)c1` [Example 457, 5-Chloro-2-[5-(4-methanesulfonyl-piperazin-1-yl)-pyridin-3-yl]-3,3-dimethyl-2,3-dihydroisoindol-1-one] are 1.8 nM and 298 nM.
On to `CC(=O)N1CCCC(c2cncc(N3C(=O)c4ccc(Cl)cc4C3(C)C)n2)C1` (stereo not drawn) [Example 462, 2-[6-(1-Acetyl-piperidin-3-yl)-pyrazin-2-yl]-5-chloro-3,3-dimethyl-2,3-dihydro-isoindol-1-one], for which the results for the concentration giving a half-maximal response (EC50) at human CYP11B2 and on human CYP11B1 were 32.6 nM and 720 nM, respectively.
Take `O=C1c2ccc(Cl)cc2C(C2CC2)N1c1cccnc1` (stereo not drawn) [Example 301, 5-Chloro-3-cyclopropyl-2-pyridin-3-yl-2,3-dihydro-isoindol-1-one]: the values for the concentration giving a half-maximal response (EC50) on human CYP11B2 and on human CYP11B1 were 161 nM and 32500 nM, respectively.
In the case of `CC1(C)c2cc(Cl)ccc2C(=O)N1c1cncc(CNC(=O)c2ncccc2Cl)c1` [Example 431, 3-Chloro-pyridine-2-carboxylic acid [5-(6-chloro-1,1-dimethyl-3-oxo-1,3-dihydro-isoindol-2-yl)-pyridin-3-ylmethyl]-amide], the figures for the concentration for a half-maximal effect (EC50) on human CYP11B2 and at human CYP11B1 were 44.4 nM and 912 nM, respectively.
In the case of `CC(C)(O)c1cncc(N2CCc3cc(Cl)ccc3C2=O)c1` [Example 12, 6-Chloro-2-[5-(1-hydroxy-1-methyl-ethyl)-pyridin-3-yl]-3,4-dihydro-2H-isoquinolin-1-one], the values for the half-maximal effective concentration (EC50) at human CYP11B2 and at human CYP11B1 were 35.7 nM and 118 nM, respectively.
The like results for `CC(=O)NCc1cncc(N2C(=O)c3ccc(Cl)cc3C2(C)C)c1` [Example 400, N-[5-(6-Chloro-1,1-dimethyl-3-oxo-1,3-dihydro-isoindol-2-yl)-pyridin-3-ylmethyl]-acetamide] were, in that order, 58.9 nM and 2740 nM.
The like results for `O=C1c2ccc(Cl)cc2CCN1c1cncc(CN2C(=O)CC[C@H]2CO)c1` [Example 83, 6-Chloro-2-[5-((S)-2-hydroxymethyl-5-oxo-pyrrolidin-1-ylmethyl)-pyridin-3-yl]-3,4-dihydro-2H-isoquinolin-1-one] were, in that order, 590 nM and 15700 nM.
As to `O=C1c2ccc(Cl)cc2CCN1c1cncc(Cc2cc(F)ccc2F)c1` [Example 212, 6-Chloro-2-[5-(2,5-difluoro-benzyl)-pyridin-3-yl]-3,4-dihydro-2H-isoquinolin-1-one], the EC50 was 8.4 nM at human CYP11B2 and 81.6 nM on human CYP11B1.
Take `CN(Cc1cncc(N2C(=O)c3ccc(Cl)cc3C2(C)C)c1)S(C)(=O)=O` [Example 392, N-[5-(6-Chloro-1,1-dimethyl-3-oxo-1,3-dihydro-isoindol-2-yl)-pyridin-3-ylmethyl]-N-methyl-methane-sulfonamide]: the concentration giving a half-maximal response (EC50) at human CYP11B2 is 9.2 nM; on human CYP11B1 it was 327 nM.
The like results for `CN1CCCC1CCOCc1cncc(N2CCc3cc(Cl)ccc3C2=O)c1` (stereo not drawn) [Example 196, 6-Chloro-2-{5-[2-(1-methyl-pyrrolidin-2-yl)-ethoxymethyl]-pyridin-3-yl}-3,4-dihydro-2H-isoquinolin-1-one] were, in that order, 178 nM and 1030 nM.
Take `O=C1c2ccc(Cl)cc2CCN1c1cncc(Cn2ccnc2CO)c1` [Example 163, 6-Chloro-2-[5-(2-hydroxymethyl-imidazol-1-ylmethyl)-pyridin-3-yl]-3,4-dihydro-2H-isoquinolin-1-one]: the EC50 at human CYP11B2 amounted to 215 nM; on human CYP11B1, 3360 nM.
As for `COc1ccc2c(n1)C(C)(C)N(c1cncc(CNc3cc[nH]n3)c1)C2=O` [Example 384, 2-Methoxy-7,7-dimethyl-6-{5-[(1H-pyrazol-3-ylamino)-methyl]-pyridin-3-yl}-6,7-dihydro-pyrrolo[3,4-b]pyridin-5-one], the concentration giving a half-maximal response (EC50) at human CYP11B2 came out at 24 nM; at human CYP11B1, 3160 nM.
As to `C[S+]([O-])c1cncc(N2CCc3cc(Cl)ccc3C2=O)c1` (stereo not drawn) [Example 279, 6-Chloro-2-(5-methanesulfinyl-pyridin-3-yl)-3,4-dihydro-2H-isoquinolin-1-one], the EC50 at human CYP11B2 is 600 nM; at human CYP11B1, 11100 nM.
On to `CCC(=O)NC1CCCc2c1cncc2N1CCc2cc(Cl)ccc2C1=O` (stereo not drawn) [Example 29, N-(6-Chloro-1-oxo-3,4,5′,6′,7′,8′-hexahydro-1H-[2,4′]biisoquinolinyl-8′-yl)-propionamide], for which the EC50 at human CYP11B2 is 318 nM; at human CYP11B1 it was 12900 nM.
Regarding `O=C1OCCN1Cc1cncc(N2CCc3cc(Cl)ccc3C2=O)c1` [Example 157, 6-Chloro-2-[5-(2-oxo-oxazolidin-3-ylmethyl)-pyridin-3-yl]-3,4-dihydro-2H-isoquinolin-1-one], the half-maximal effective concentration (EC50) on human CYP11B2 was found to be 352 nM; on human CYP11B1 it was 11200 nM.
The like results for `Cn1ccnc1C(=O)NCc1cncc(N2C(=O)c3ccc(Cl)cc3C2(C)C)c1` [Example 432, 1-Methyl-1H-imidazole-2-carboxylic acid [5-(6-chloro-1,1-dimethyl-3-oxo-1,3-dihydro-isoindol-2-yl)-pyridin-3-ylmethyl]-amide] were, in that order, 22.2 nM and 1450 nM.
The like results for `CC(C)OCc1cncc(N2CCc3cc(Cl)ccc3C2=O)c1` [Example 194, 6-Chloro-2-(5-isopropoxymethyl-pyridin-3-yl)-3,4-dihydro-2H-isoquinolin-1-one] were, in that order, 20.3 nM and 224 nM.
For `CC1(COCc2cncc(N3CCc4cc(Cl)ccc4C3=O)c2)CC1` [Example 200, 6-Chloro-2-[5-(1-methyl-cyclopropylmethoxymethyl)-pyridin-3-yl]-3,4-dihydro-2H-isoquinolin-1-one], the figures for the EC50 at human CYP11B2 and at human CYP11B1 were 32.5 nM and 315 nM, respectively.

In general, EC50 refers to the concentration giving half of the maximal effect.

Values taken from patent publication US9133158B2, “Bicyclic dihydroisoquinoline-1-one derivatives” (Hoffmann-La Roche Inc., priority 2011, dated 2015).
